What follows are compounds tested against human nCDase (extracellular region, residues 99–780) (Homo sapiens, UniProt Q9NR71) (assay: RBM biochemical nCDase enzymatic activity assay). Settings: qualitative; data not shown for valproate, anacardamate, MG149.
human nCDase (extracellular region, residues 99–780), sequence (Q9NR71 99-780): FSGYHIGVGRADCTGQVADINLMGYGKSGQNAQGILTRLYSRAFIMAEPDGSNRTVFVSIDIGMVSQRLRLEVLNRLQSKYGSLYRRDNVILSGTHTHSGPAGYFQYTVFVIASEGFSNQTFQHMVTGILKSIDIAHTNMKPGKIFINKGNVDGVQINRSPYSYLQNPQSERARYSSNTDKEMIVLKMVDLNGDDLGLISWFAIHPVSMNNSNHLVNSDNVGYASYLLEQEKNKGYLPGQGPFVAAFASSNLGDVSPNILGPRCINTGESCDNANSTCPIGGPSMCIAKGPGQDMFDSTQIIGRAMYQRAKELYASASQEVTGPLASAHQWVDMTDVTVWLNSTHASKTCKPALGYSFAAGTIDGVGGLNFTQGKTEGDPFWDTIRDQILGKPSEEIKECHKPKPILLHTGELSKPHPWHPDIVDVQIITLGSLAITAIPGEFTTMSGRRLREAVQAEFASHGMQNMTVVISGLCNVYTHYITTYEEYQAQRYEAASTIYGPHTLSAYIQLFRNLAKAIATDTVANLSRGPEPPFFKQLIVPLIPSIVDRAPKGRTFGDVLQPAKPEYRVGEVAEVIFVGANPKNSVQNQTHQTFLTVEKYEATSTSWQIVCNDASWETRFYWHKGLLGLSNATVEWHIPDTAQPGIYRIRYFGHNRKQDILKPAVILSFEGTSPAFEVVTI
In the case of anacardamate, the “nCDase inhibitory activity (in words)” value is reported as “exhibited nCDase inhibitory activity”. In the case of `CCCC(CCC)C(=O)O` [valproate], the “nCDase inhibitory activity (in words)” value is reported as “exhibited nCDase inhibitory activity”. `CC(/C=C/C(=O)NO)=C\[C@@H](C)C(=O)c1ccc(N(C)C)cc1` [Trichostatin A] was tested, and the “nCDase inhibitory activity (in words)” value was “nCDase inhibitory activity”. For `CCCCCCCc1ccc(CCc2cccc(O)c2C(=O)O)cc1` [MG149], the “nCDase inhibitory activity (in words)” value was “exhibited nCDase inhibitory activity”.

From article PMC10681040 (Bioorganic chemistry, 2023)
